Article PMC11979685, “Synthesis of Derivatives of the Antibiotic Albicidin: The N‐Terminal Fragment as Key to Control Potency and Resistance Mediated by the Binding Protein AlbA” (Chemistry (Weinheim an Der Bergstrasse, Germany), 2025)
Converted amounts (≈) assume the structure as drawn. Where two headings read alike, the source gives them in different places.

What was measured:
[1] = Reverse-phase HPLC retention time as estimate of lipophilicity; format: physicochemical; conditions: indicator of lipophilicity
From the text: As mentioned before, albicidin 1 is a rather hydrophobic compound and improving its aqueous solubility is desirable. The lipophilicity of drug molecules is commonly characterized by the octanol/water partition coefficient (logP). An alternative approach relies on the correlation between lipophilicity and the retention time (Rt) on a reverse‐phase HPLC column.[31] This approach works well if structurally related compounds are compared as is the case for this SAR study. Rt was thus used to estimate the hydrophilicity of albicidin 1 and its derivatives 2–24 (Table 1).[32]

[2] = system: Micrococcus luteus DSM 1790; assay: MIC determination (broth microdilution); format: cell-based; conditions: DSM1790, read-out: MIC M. luteus
Protocol: (§1) After completing the syntheses, the antibacterial activity of A‐variations 4–24 was assessed by determination of MIC values against a basic set of gram‐negative and gram‐positive bacteria (Table 1). The monocyclic derivatives 4–8 featuring a cyano‐, trifluoromethyl‐, methoxy‐ and fluoro‐ substituent in para‐position were very active against the gram–negative E. coli and S. typhimurium strains with MIC values in the same range as 3rd Gen albicidin 3 or ciprofloxacin which is the gold standard for gyrase inhibitors. […] These findings are in agreement with previous studies showing good activities for cyano, trifluoromethyl, methoxy and fluoro substituents in the para‐position of different aromatic rings in the building block A.[12, 13] The activity of the monocyclic derivatives 4–8 against the gram‐positive strains B. subtilis and M. luteus were similar but slightly less pronounced compared to the lead structure 3.
(§2) 1.1 Determination of Minimal Inhibitory Concentrations (MIC)
(§3) Minimal inhibitory concentration (MIC) against selected bacterial strains values were determined according to the ninth edition of the Approved Standard M07-A9.[1] 20 μL of cryo stocks of bacterial strains were suspended in 20 mL LB medium (Lysogeny broth: 10 g/L peptone, 5 g/L yeast extract, 5 g/L NaCl). Following incubation overnight at 37°C, 200 rpm, the test inoculum was adjusted by 0.5 McFarland Standard in cation adjusted Mueller-Hinton broth (BBLTM Mueller-Hinton Broth II, Becton, Dickinson and Company, New Jersey, USA) to approximately 1x10^6 CFU mL-1. 95 μL of the bacterial inoculum were applied per well of a 96-well plate. Albicidin and albicidin derivatives 3−24 were dissolved in DMSO (100%) to an initial concentration of 2560 μg/mL and serially diluted in DMSO (100%). Initial solution and serial dilutions of Ciprofloxacin were prepared in 0.1 N HCL, respectively. 5 μL of each antibiotic dilution were added to the microdilution tray to reach albicidin concentrations of 128 μg/mL to 0.016 μg/mL per well. One row of each well plate served as a growth control without antibiotic substances and another row of the microdilution tray served as sterility control (only MHB II - media). The antimicrobial effect of the solvent (DMSO) was tested by adding 5 μL DMSO to several wells. Purity check and cell titer control were performed according to International S tandard M07-A9 on Mueller-Hinton II Agar (Mueller Hinton II Broth, 15 g/L agar-agar). Both microdilution trays and agar plates were incubated at 30−37°C for 16 h and subsequently analyzed for growth inhibition by naked eye. The following primary panel of microorganisms were purchased from German Collection of Microorganisms and Cell Cultures (DSMZ):
(§4) Escherichia coli DSM 1116
(§5) Micrococcus luteus DSM 1790
(§6) Mycobacterium phlei DSM 750
(§7) Salmonella typhimurium TA100 was kindly provided by Prof. Dr. Vera Meyer (Technische Universität Berlin). […]
(§8) was purchased as part of the single gene knockout library of E. coli K12 BW25113 (Keio collection) from Horizon Discovery group plc (Cambridge, UK).

E. coli BW25113 = assay: MIC determination (broth microdilution); format: cell-based
Protocol: as §1, §2, §3, §4, §5, §6, §7, §8

Bacillus subtilis DSM 10 = assay: MIC determination (broth microdilution); format: cell-based; conditions: DSM10, read-out: MIC B. sub.
Protocol: as §1, §2, §3, §4, §5, §6, §7, §8

E. coli DSM1116 = assay: MIC determination (broth microdilution); format: cell-based
Protocol: as §1, §2, §3, §4, §5, §6, §7, §8

[3] = system: Mycobacterium phlei DSM 750; assay: MIC determination (broth microdilution); format: cell-based
Protocol: as §1, §2, §3, §4, §5, §6, §7, §8

E. coli DNA gyrase = E. coli DNA gyrase (Escherichia coli, UniProt P0AES4); assay: E. coli gyrase DNA cleavage assay; format: biochemical; design: key to Gyrase inhibition strong+ / weak −: + strong inhibition; − weak inhibition in comparison to compound 16; conditions: for CC50: E. coli gyrase DNA cleavage, read-out: CC50 (concentration at half-maximum cleavage); for Gyrase inhibition strong+ / weak −: qualitative DNA cleavage assay at 1 μM and 10 μM, in comparison to compound 16
Chain of E. coli DNA gyrase (P0AES4 whole entry): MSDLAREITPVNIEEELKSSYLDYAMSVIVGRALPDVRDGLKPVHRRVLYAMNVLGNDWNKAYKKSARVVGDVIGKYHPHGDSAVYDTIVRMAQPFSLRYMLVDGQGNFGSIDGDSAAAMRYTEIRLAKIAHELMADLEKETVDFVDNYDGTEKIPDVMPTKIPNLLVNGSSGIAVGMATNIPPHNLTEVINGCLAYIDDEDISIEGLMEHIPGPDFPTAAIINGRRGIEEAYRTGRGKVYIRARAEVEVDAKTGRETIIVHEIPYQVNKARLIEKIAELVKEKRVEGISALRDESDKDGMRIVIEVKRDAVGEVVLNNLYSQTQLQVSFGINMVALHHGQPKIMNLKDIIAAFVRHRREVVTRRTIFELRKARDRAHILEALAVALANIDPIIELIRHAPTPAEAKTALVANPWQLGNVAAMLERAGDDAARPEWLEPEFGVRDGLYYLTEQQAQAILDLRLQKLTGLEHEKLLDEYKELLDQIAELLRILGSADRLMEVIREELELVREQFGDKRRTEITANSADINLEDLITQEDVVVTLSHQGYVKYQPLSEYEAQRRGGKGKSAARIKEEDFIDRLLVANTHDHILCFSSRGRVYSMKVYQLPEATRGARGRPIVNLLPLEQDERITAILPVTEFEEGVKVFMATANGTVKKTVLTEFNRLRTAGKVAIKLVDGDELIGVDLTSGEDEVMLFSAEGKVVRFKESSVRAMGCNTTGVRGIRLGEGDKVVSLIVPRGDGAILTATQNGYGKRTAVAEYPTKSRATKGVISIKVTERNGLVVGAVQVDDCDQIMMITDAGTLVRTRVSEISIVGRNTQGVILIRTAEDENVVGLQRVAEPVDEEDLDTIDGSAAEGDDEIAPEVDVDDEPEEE
Protocol: The target activity of the synthesized derivatives was investigated using a DNA cleavage assay with purified and enzymatically active E. coli DNA gyrase[8] (see SI). In this assay, albicidin‐stabilized complexes of gyrase and plasmid DNA are trapped, and subsequently denatured and deproteinated to reveal DNA linearized by gyrase. […] For the best performing compounds, which were able to fully stabilize the cleavage complex at a concentration of 1 μM, the concentrations at half‐maximum cleavage (CC50) were determined (Figure 3).
1.2 Escherichia coli Gyrase Cleavage Inhibition Assay
E. coli gyrase cleavage assays were executed by setting up a master mix including 0.25 µg relaxed plasmid (pBR322) in 35 mM Tris-HCl (pH 7.5), 24 mM KCl, 4 mM MgCl2, 2 mM dithithreitol (DTT), 1.8 mM spermidine, 1 mM ATP, 6.5% (wt/vol) glycerol and 0.1 mg/ml bovine serum albumin per reaction.
Of this stock solution, 13.2 µL was aliquoted for each reaction into 1.5 mL Eppendorf tubes and supplemented with 0.3 µL of the appropriate compound dilution or DMSO with a […] DMSO concentration of 2% per reaction. The reactions were started with 1.5 µL of 50 nM (pre-screening) or 40 nM (IC50 determinations) wt E. coli gyrase in dilution buffer (50 mM Tris-HCl (pH 7.5), 100 mM KCl, 2 mM DTT, 1 mM EDTA, and 50% (wt/vol) glycerol) for a […] volume of 15 µL. Reactions were incubated at 37°C for 30 minutes before addition of 1.5 µL 0.2% (wt/vol) SDS and 0.75 µL proteinase K (0.2 mg/mL) and further incubation at 37°C for 30 minutes to trap cleavage complexes. Reactions were stopped with 15 µL chloroform:isoamyl alcohol (24: 1 v/v) and 15 µL of STEB (40% (wt/vol) sucrose, […] Tris-Cl pH 8, 10 mM EDTA, 0.5 mg/mL bromophenol blue). After brief vortexing and centrifugation at 2,300g for 5 min, 15 µL of the aqueous phase was loaded onto 1% (wt/vol) agarose in TAE (Tris-acetate […] and EDTA […]) gels supplemented with 10 µg/mL ethidium bromide.
The gels were run at 85 V for 2 hours.
DNA was visualized (602/50, UV Trans, auto optimal exposure) with a ChemiDoc MP (Bio-Rad Laboratories Inc., equipped with ImageLab Touch Software v2.0.0.27) and the percentage of cleaved DNA relative to the total amount of DNA per lane was determined with ImageJ software.[2] IC50 curves were generated in GraphPad Prism (v10.0.0) using the non-linear regression curve fit variable slope with four parameters and least squares regression.

[4] = Escherichia coli, BW25113; read-out: MIC E. coli BW25113
[5] = Escherichia coli, DSM1116; read-out: MIC E. coli DSM1116
[6] = Mycolicibacterium phlei, DSM750; read-out: MIC M. phlei
[7] = Escherichia coli, BW25113, read-out: MIC E. coli BW25113

Row | SMILES | Rt (retention time) [1] | MIC [2] | MIC (E. coli BW25113; [4]) | MIC (Bacillus subtilis DSM 10) | MIC (E. coli DSM1116; [5]) | MIC [3, 6] | CC50 (E. coli DNA gyrase) | Gyrase inhibition strong+ / weak − (E. coli DNA gyrase) | MIC (E. coli BW25113; [7]) | MIC (E. coli DSM1116; Escherichia coli, DSM1116, read-out: MIC E. coli DSM1116) | MIC ([3]; Mycolicibacterium phlei, DSM750, read-out: MIC M. phlei)
1 | COc1c(NC(=O)c2ccc(NC(=O)c3ccc(NC(=O)[C@H](Cc4c[nH]nn4)NC(=O)c4ccc(NC(=O)c5ccc(C#N)cc5)cc4)cn3)c(OC)c2O)ccc(C(=O)O)c1O [compound 4] | 8.20 min | 0.125 µg/mL (≈ 0.146 µM) | ≤ 0.016 µg/mL | 0.125 µg/mL (≈ 0.146 µM) | 0.031 µg/mL (≈ 0.0363 µM) | 4 µg/mL (≈ 4.68 µM) | 12 nM | + |  |  | 
2 | COc1c(NC(=O)c2ccc(NC(=O)c3ccc(NC(=O)[C@H](Cc4c[nH]nn4)NC(=O)c4ccc(NC(=O)[C@@H](C)Oc5ccc(O)cc5)cc4)cn3)c(OC)c2O)ccc(C(=O)O)c1O [compound 9] | 7.78 min | 2 µg/mL (≈ 2.25 µM) | 0.063 µg/mL (≈ 0.0708 µM) | 1 µg/mL (≈ 1.12 µM) | 0.063 µg/mL (≈ 0.0708 µM) |  |  | + |  |  | 
3 | COc1c(NC(=O)c2ccc(NC(=O)c3ccc(NC(=O)[C@H](Cc4c[nH]nn4)NC(=O)c4ccc(NC(=O)c5ccc6ccccc6n5)cc4)cn3)c(OC)c2O)ccc(C(=O)O)c1O [compound 11] | 9.49 min | ≤ 0.016 µg/mL | ≤ 0.016 µg/mL | ≤ 0.016 µg/mL | ≤ 0.016 µg/mL | 0.5 µg/mL (≈ 0.568 µM) | 18 nM | + |  |  | 
4 | COc1c(NC(=O)c2ccc(NC(=O)c3ccc(NC(=O)[C@H](Cc4c[nH]nn4)NC(=O)c4ccc(NC(=O)c5cc6ccccc6cn5)cc4)cn3)c(OC)c2O)ccc(C(=O)O)c1O [compound 12] | 8.74 min | 0.063 µg/mL (≈ 0.0715 µM) |  | 0.063 µg/mL (≈ 0.0715 µM) |  |  |  | + | ≤ 0.016 µg/mL | ≤ 0.016 µg/mL | 1 µg/mL (≈ 1.14 µM)
5 | COc1c(NC(=O)c2ccc(NC(=O)c3ccc(NC(=O)[C@H](Cc4c[nH]nn4)NC(=O)c4ccc(NC(=O)c5cnc6ccccc6c5)cc4)cn3)c(OC)c2O)ccc(C(=O)O)c1O [compound 13] | 8.07 min | 0.125 µg/mL (≈ 0.142 µM) | ≤ 0.016 µg/mL | 0.125 µg/mL (≈ 0.142 µM) | 0.031 µg/mL (≈ 0.0352 µM) | 1 µg/mL (≈ 1.14 µM) |  | + |  |  | 
6 | COc1c(NC(=O)c2ccc(NC(=O)c3ccc(NC(=O)[C@H](Cc4c[nH]nn4)NC(=O)c4ccc(NC(=O)c5ccc6ncccc6c5)cc4)cn3)c(OC)c2O)ccc(C(=O)O)c1O [compound 14] | 7.67 min | 0.125 µg/mL (≈ 0.142 µM) | ≤ 0.016 µg/mL | 0.25 µg/mL (≈ 0.284 µM) | 0.016 µg/mL (≈ 0.0182 µM) | 4 µg/mL (≈ 4.54 µM) |  | + |  |  | 
7 | COc1c(NC(=O)c2ccc(NC(=O)c3ccc(NC(=O)[C@H](Cc4c[nH]nn4)NC(=O)c4ccc(NC(=O)c5ccc6nc(C)ccc6c5)cc4)cn3)c(OC)c2O)ccc(C(=O)O)c1O [compound 16] | 6.94 min |  |  |  |  |  |  | + |  |  | 
8 | COc1c(NC(=O)c2ccc(NC(=O)c3ccc(NC(=O)[C@H](Cc4c[nH]nn4)NC(=O)c4ccc(NC(=O)c5c[nH]c6ccccc6c5=O)cc4)cn3)c(OC)c2O)ccc(C(=O)O)c1O [compound 17] | 7.98 min | ≤ 0.016 µg/mL | 0.063 µg/mL (≈ 0.0702 µM) | ≤ 0.016 µg/mL | 0.031 µg/mL (≈ 0.0346 µM) | 8 µg/mL (≈ 8.92 µM) |  | + |  |  | 
9 | CCn1cc(C(=O)Nc2ccc(C(=O)N[C@@H](Cc3c[nH]nn3)C(=O)Nc3ccc(C(=O)Nc4ccc(C(=O)Nc5ccc(C(=O)O)c(O)c5OC)c(O)c4OC)nc3)cc2)c(=O)c2ccc(C)nc21 [compound 18] | 9.24 min | 0.031 µg/mL (≈ 0.033 µM) | 0.063 µg/mL (≈ 0.067 µM) | 0.063 µg/mL (≈ 0.067 µM) | 0.031 µg/mL (≈ 0.033 µM) | ≥ 8 µg/mL |  | − |  |  | 
10 | CCn1cc(C(=O)Nc2ccc(C(=O)N[C@@H](Cc3c[nH]nn3)C(=O)Nc3ccc(C(=O)Nc4ccc(C(=O)Nc5ccc(C(=O)O)c(O)c5OC)c(O)c4OC)nc3)cc2)c(=O)c2cc3c(cc21)OCO3 [compound 19] | 8.45 min | 0.016 µg/mL (≈ 0.0165 µM) | ≤ 0.016 µg/mL | 0.031 µg/mL (≈ 0.032 µM) | 0.016 µg/mL (≈ 0.0165 µM) | 0.25 µg/mL (≈ 0.258 µM) |  | − |  |  | 
11 | COc1c(NC(=O)c2ccc(NC(=O)c3ccc(NC(=O)[C@H](Cc4c[nH]nn4)NC(=O)c4ccc(NC(=O)c5cc(=O)c6cc(F)ccc6o5)cc4)cn3)c(OC)c2O)ccc(C(=O)O)c1O [compound 20] | 8.60 min | 0.063 µg/mL (≈ 0.0688 µM) | ≤ 0.016 µg/mL | 0.125 µg/mL (≈ 0.136 µM) | ≤ 0.016 µg/mL | 2 µg/mL (≈ 2.18 µM) |  | + |  |  | 
12 | COc1c(NC(=O)c2ccc(NC(=O)c3ccc(NC(=O)[C@H](Cc4c[nH]nn4)NC(=O)c4ccc(NC(=O)c5cc6cc(O)ccc6[nH]5)cc4)cn3)c(OC)c2O)ccc(C(=O)O)c1O [compound 21] | 7.50 min | 1 µg/mL (≈ 1.13 µM) |  | 1 µg/mL (≈ 1.13 µM) | 0.063 µg/mL (≈ 0.0712 µM) | 4 µg/mL (≈ 4.52 µM) |  | + | 0.125 µg/mL (≈ 0.141 µM) |  | 
13 | COc1c(NC(=O)c2ccc(NC(=O)c3ccc(NC(=O)[C@H](Cc4c[nH]nn4)NC(=O)c4ccc(NC(=O)c5ccc6ncsc6c5)cc4)cn3)c(OC)c2O)ccc(C(=O)O)c1O [compound 22] | 7.65 min | 0.125 µg/mL (≈ 0.141 µM) | ≤ 0.016 µg/mL | 0.125 µg/mL (≈ 0.141 µM) | ≤ 0.016 µg/mL | 2 µg/mL (≈ 2.26 µM) | 43 nM | + |  |  | 
